Type in all cases: biochemical
One test addresses T1, Collagenase (Homo sapiens, UniProt P03956).
T1 sequence (P03956 100-469): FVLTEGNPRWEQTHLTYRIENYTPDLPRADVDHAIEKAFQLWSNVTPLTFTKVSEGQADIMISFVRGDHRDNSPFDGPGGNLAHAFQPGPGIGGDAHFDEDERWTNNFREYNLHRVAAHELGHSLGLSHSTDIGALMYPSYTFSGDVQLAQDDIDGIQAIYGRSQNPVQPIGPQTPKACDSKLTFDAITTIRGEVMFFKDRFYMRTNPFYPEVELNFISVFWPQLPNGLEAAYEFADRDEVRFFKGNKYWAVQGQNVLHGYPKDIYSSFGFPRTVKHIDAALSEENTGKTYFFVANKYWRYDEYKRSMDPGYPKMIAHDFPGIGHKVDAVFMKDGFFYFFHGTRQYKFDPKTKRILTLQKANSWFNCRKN
As to the kind of experiment: Enzyme inhibition assay (fluorimetric, peptide substrate Dnp-Pro-Leu-Gly-Trp-Ala-D-Arg-NH2), collagenase. To be noted: Ki (app) assumed to approximate to the true Ki; pH 7.5, overnight. How it is done: (§1) The activity and selectivity of the compounds of the invention may be determined as described below. All enzyme assays to determine Ki values were performed using the peptide substrate […]. [M. Sharon Stock and Rober D. Gray, JBC 264, 4277-81, 1989]. The enzymes cleave at the Gly-Leu bond which can be followed fluorimetrically by measuring the increase in Trp fluorescence emission associated with the removal of the quenching dinitrophenol (Dnp) group. […] Brij 35 at either room temperature or 37° C. depending on the enzyme. The reaction is stopped by adjusting the pH to 4 using 0.1M sodium acetate buffer and the fluorescence read at an excitation wavelength of 280 nm and emission wavelength of 346 nm. […] For stromelysin and collagenase, Ki (app) was assumed to approximate to the true Ki as [S]<<Km for the substrate hydrolysis. For gelatinase the Ki was determined by performing the analyses at several substrate concentrations. A plot of Ki (app) vs. [S] then gave the true Ki as the value of the y-axis intercept.

In a further test the target is Stromelysin-1 (Homo sapiens, UniProt P08254). As to the kind of experiment: Enzyme inhibition assay (fluorimetric, peptide substrate Dnp-Pro-Leu-Gly-Trp-Ala-D-Arg-NH2), stromelysin. Particulars: Ki (app) assumed to approximate to the true Ki; pH 7.5, overnight. How it is done:
as §1

The target in another test is T2, Gelatinase 72KD (Homo sapiens, UniProt P08253).
T2 sequence (P08253 110-660): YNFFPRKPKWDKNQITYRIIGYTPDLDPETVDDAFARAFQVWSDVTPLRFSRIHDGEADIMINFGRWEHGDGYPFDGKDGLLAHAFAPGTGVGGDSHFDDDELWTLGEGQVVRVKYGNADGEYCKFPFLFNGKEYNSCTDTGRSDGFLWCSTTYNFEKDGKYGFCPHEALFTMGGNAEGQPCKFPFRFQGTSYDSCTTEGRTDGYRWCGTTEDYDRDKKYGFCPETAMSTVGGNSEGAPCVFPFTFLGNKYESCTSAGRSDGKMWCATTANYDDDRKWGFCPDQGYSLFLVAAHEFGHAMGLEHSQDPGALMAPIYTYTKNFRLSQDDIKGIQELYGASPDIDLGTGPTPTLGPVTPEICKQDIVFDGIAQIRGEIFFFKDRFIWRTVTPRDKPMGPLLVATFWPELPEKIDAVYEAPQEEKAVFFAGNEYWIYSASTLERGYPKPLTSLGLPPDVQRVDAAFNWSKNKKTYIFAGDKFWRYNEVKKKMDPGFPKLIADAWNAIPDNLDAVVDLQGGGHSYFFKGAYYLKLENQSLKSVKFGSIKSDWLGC
As to the kind of experiment: Enzyme inhibition assay (fluorimetric, peptide substrate Dnp-Pro-Leu-Gly-Trp-Ala-D-Arg-NH2), gelatinase. To be noted: true Ki from plot of Ki (app) vs. [S]; pH 7.5, overnight. How it is done: as §1

Sequence of Stromelysin-1 (P08254 100-477, species assumed): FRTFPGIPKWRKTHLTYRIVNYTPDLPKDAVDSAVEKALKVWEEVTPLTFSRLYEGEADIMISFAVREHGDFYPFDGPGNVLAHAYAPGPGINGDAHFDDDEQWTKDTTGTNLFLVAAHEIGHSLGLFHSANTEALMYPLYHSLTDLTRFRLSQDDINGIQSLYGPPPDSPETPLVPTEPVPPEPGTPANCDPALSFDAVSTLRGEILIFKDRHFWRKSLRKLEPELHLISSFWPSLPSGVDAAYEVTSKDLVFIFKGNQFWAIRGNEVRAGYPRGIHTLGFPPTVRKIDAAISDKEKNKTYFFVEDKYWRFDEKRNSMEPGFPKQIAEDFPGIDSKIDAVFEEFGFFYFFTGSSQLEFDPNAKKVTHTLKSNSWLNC

Consider `Cc1ccc(CCC[C@H](CC(=O)NO)C(=O)N[C@@H](CC2CCCCC2)C(=O)NCCCNS(=O)(=O)N(C)C)cc1` [Example 6], for which the Ki turned out to be 800 nM at Collagenase and 6.8 nM at Stromelysin-1.
On the same counts, the results for `Cc1ccc(CCC[C@H](CC(=O)NO)C(=O)N[C@@H](CC2CCCCC2)C(=O)NCCNS(=O)(=O)N2CCOCC2)cc1` [Example 3, {4-(N-Hydroxyamino)-2(R)-[3-(4-methylphenyl)propyl]succinyl}-L-β-cyclohexylalanine-N-[(2-morpholinesulphonylamino)ethyl]amide] are 385 nM and 2.75 nM.
On to `Cc1ccc(CCC[C@H](CC(=O)O)C(=O)N[C@@H](CC2CCCCC2)C(=O)NCCNS(=O)(=O)N2CCOCC2)cc1` [Example 2, {4-Hydroxy-2-(R)-[3-(4-methylphenyl)propyl]succinyl}-L-β-cyclohexylalanine-N-[(2-morpholinesulphonylamino)ethyl]amide], for which the Ki on Collagenase worked out at 100000 nM; at Stromelysin-1, 802 nM; at Gelatinase 72KD, 1.43 nM.
The corresponding values for `Cc1ccc(CCC[C@H](CC(=O)NO)C(=O)N[C@@H](CC2=CCCCC2)C(=O)NCCNS(=O)(=O)N2CCOCC2)cc1` [Example 5, {4-(N-Hydroxyamino)-2(R)-[3-(4-methylphenyl)propyl]succinyl}-L-β-(1-cyclohexenylalanine)-N-[(2-morpholinesphonylamino)ethyl]amide] are 554 nM, 18.7 nM and 0.047 nM.
In the case of `O=C(C[C@@H](CCCc1ccc(Cl)cc1)C(=O)N[C@@H](CC1CCCCC1)C(=O)NCCNS(=O)(=O)N1CCOCC1)NO` [Example 4, {4-(N-Hydroxyamino)-2(R)-[3-(4-chlorophenyl)propyl]succinyl}-L-β-cyclohexylalanine-N-[(2-morpholinesulphonylamino)ethyl]amide], the Ki was determined as 302 nM on Collagenase, 1.73 nM at Stromelysin-1 and 0.014 nM on Gelatinase 72KD.

The values above are taken from patent US5530128A, “N-sulphonylamino derivatives of dipetide compounds as metalloproteinase inhibitors” (Celltech Therapeutics Limited, priority 1992, dated 1996).
